Test results reported in patent US8507656B2, “Stabilized angiopoietin-2 antibodies and uses thereof” (MedImmune Limited, priority 2008, dated 2013).

How the values were obtained:
[1] = system: HT-29 xenograft tumors; assay: HT-29 xenograft model of colorectal cancer; format: in vivo; conditions: 3.19.3 10 mg/kg 2×wk i.p., Irinotecan 35 mg/kg/week i.v., combination of both
Description: The anti-tumor activity of 3.19.3 was evaluated in combination with Irinotecan in the HT-29 xenograft model of colorectal cancer. HT-29 cells were cultured in flasks as routine until the cells reached sub-confluence. Cell suspensions containing approximately 3×10E6 cells were injected subcutaneously into the flank of female Swiss nude mice. When the tumor volume reached 200 mm^3, the mice were randomized in treatment groups of 8-10 mice and the treatments were initiated. 3.19.3 (10 mg/kg) in saline was injected intraperitoneally, twice per week for 2 weeks. Irinotecan (35 mg/kg) was administered by intravenous administration following a weekly schedule. The dimensions of each tumor and body weights were measured at least twice per week. The volume of the tumor was calculated as: Volume=Length×(Width)×0.5 (cm^3). […] The % tumor growth inhibition achieved is as follows: […]

[2] = system: Calu6 xenograft tumors; format: in vivo; conditions: 3.19.3 10 mg/kg 2×wk i.p., Docetaxel 15 mg/kg/week i.v., combination of both
Description: (§1) The anti-tumor activity of 3.19.3 was evaluated in combination with Docetaxel in the Calu6 xenograft model of lung cancer. Calu6 cells were cultured in flasks as routine until the cells reached sub-confluence. Cell suspensions containing approximately 3×10E6 cells were injected subcutaneously into the flank of female Swiss nude mice. When the tumor volume reached 200 mm^3, the mice were randomized in treatment groups of 8-10 mice and the treatments were initiated. 3.19.3 (10 mg/kg) in saline was injected intraperitoneally, twice per week for 2 weeks. Docetaxel (15 mg/kg) was administered by intravenous administration following a weekly schedule. The dimensions of each tumor and body weights were measured at least twice per week. The volume of the tumor was calculated as: Volume=Length×(Width)×0.5 (cm^3).

[3] = system: H460 xenograft tumors; format: in vivo; conditions: 3.19.3 10 mg/kg 2×wk i.p., Oxaliplatin 5 mg/kg/week i.p., combination of both
Description: as §1, with “Oxaliplatin” for “Docetaxel”, “H460” for “Calu6”, “Oxaliplatin (5” for “Docetaxel (15”, “intraperitoneal” for “intravenous”

[4] = system: collagen induced arthritis
[5] = means ± SEM, 3.19.3 10 mg/kg i.p every 3 days, hIgG i.p, Prednisolone 3 mg/kg p.o daily, 14 days from disease onset

Question: How did the “% tumor growth inhibition” value [1] turn out when “3.19.3: fully human anti-Ang-2 monoclonal antibody, wild type control; light chain SEQ ID No. 1, heavy chain SEQ ID No. 2 [Antibody 3.19.3]” was run?
Answer: 44%

Question: And the “% tumor growth inhibition” value [2]?
Answer: 20%

Question: What about the “% tumor growth inhibition” value [3] of the same substance?
Answer: 67%

Question: And the “clinical signs of disease progression (arthritic score) and histological assessment of synovitis and joint destruction (in words)” value ([4]; 3.19.3 10 mg/kg, vs vehicle control)?
Answer: Significant reductions

Question: What about the “% Inhibition (of AUC of clinical disease progression)” value [4, 5] of the same substance?
Answer: 64.3% ± 8.6%

Question: And the “Area Under Curve (AUC) of clinical disease progression” value [4, 5]?
Answer: 36.0 ± 8.7

Question: And the “tolerability by mean body weight (in words)” value ([4]; mouse, in vivo, 10 mg/kg)?
Answer: well tolerated
